From patent US5004747A, “Isoquinolinones” (May & Baker Limited, priority 1988, dated 1991) come the findings set out here.

For this assay, the target named is T1, rat hepatic microsomal HMG CoA reductase (Rattus norvegicus, UniProt P51639).
T1 construct: rat hepatic microsomal HMG CoA reductase; from tissue; host or cells: rat liver microsomes
T1 sequence (P51639 1-887): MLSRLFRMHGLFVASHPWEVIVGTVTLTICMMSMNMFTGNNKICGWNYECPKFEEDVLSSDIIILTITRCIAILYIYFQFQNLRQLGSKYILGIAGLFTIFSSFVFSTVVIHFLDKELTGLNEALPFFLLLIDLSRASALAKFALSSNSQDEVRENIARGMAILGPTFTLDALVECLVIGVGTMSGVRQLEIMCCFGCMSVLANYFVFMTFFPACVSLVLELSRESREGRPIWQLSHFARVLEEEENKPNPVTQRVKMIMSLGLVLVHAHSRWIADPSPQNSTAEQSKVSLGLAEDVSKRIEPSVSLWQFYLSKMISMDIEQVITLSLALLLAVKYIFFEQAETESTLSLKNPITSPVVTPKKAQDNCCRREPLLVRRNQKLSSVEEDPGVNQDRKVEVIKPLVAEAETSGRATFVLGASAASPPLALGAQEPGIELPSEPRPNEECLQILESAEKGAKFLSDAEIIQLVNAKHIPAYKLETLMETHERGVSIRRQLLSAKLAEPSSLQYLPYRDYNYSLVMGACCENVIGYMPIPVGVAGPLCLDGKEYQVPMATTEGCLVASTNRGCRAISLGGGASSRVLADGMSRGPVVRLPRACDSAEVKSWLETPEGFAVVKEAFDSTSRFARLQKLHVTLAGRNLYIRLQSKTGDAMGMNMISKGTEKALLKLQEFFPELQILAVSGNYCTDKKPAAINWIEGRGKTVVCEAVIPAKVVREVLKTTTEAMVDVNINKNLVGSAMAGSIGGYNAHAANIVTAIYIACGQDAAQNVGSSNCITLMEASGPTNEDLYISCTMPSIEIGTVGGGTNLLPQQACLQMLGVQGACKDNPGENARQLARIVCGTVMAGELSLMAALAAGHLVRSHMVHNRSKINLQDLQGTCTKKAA
The assay can be described thus: inhibition of rat hepatic microsomal HMG CoA reductase activity in vitro (Table I). The class given is biochemical. Conditions: for inhibition at 0.082 µg/mL: 0.082 micrograms/ml; for inhibition at 0.25 µg/mL: 0.25 micrograms/ml; for inhibition at 0.74 µg/mL: 0.74 micrograms/ml; for inhibition at 2.22 µg/mL: 2.22 micrograms/ml; for inhibition at 6.66 µg/mL: 6.66 micrograms/ml; for inhibition at 20 µg/mL: 20.0 micrograms/ml. The text has this: In the table the concentrations of the test compounds are expressed in micrograms/ml.

One may read the inhibition as the percentage by which the read-out fell short of the control. Low readings indicate a weak effect, high ones a strong effect.

Take `CC(C)n1c(/C=C/[C@@H]2C[C@@H](O)CC(=O)O2)c(-c2ccc(F)cc2)c2ccccc2c1=O` [H, (4R,6S)-(E)-4-hydroxy-6-[2-{4-(4-fluorophenyl)-2-isopropyl-1-oxo-1,2-dihydroisoquinolin-3-yl}-ethen-1-yl]-3,4,5,6-tetrahydro-2H-pyran-2-one]: at 0.082 µg/mL the inhibition was 49%, the inhibition at 0.25 µg/mL turned out to be 66%, 0.74 µg/mL produced 85% inhibition and testing at 2.22 µg/mL gave an inhibition of 95%. This molecule also had an inhibition at 6.66 µg/mL of 99% and an inhibition at 20 µg/mL of 100%.
Regarding `COc1ccc(-n2c(/C=C/[C@@H]3C[C@@H](O)CC(=O)O3)c(C(C)C)c3ccccc3c2=O)cc1` [N, (4R,6S)-(E)-4-hydroxy-6-(2-(2-(4-methoxyphenyl)-4-isopropyl-1-oxo-1,2-dihydroisoquinolin-3-yl)ethen-1-yl)-3,4,5,6-tetrahydro-2H-pyran-2-one], 0.25 µg/mL produced 13% inhibition, testing at 0.74 µg/mL gave an inhibition of 34%, 2.22 µg/mL produced 59% inhibition and 6.66 µg/mL produced 80% inhibition. The molecule also showed an inhibition at 0.0824 µg/mL (0.0824 micrograms/ml) of 16%.
`Cc1cc(-n2c(/C=C/[C@@H]3C[C@@H](O)CC(=O)O3)c(C(C)C)c3ccccc3c2=O)ccc1F` [P, (4R,6S)-(E)-6-(2-(2-(4-fluoro-3-methylphenyl)-4-isopropyl-1-oxo-1,2-dihydroisoquinolin-3-yl)ethen-1-yl)-4-hydroxy-3,4,5,6-tetrahydro-2H-pyran-2-one] came in with an inhibition at 0.082 µg/mL of 27%, an inhibition at 0.25 µg/mL of 39%, an inhibition at 0.74 µg/mL of 63% and an inhibition at 2.22 µg/mL of 81%. The same molecule showed an inhibition at 6.66 µg/mL of 90% and an inhibition at 20 µg/mL of 90%.
Regarding `CC(C)c1c(/C=C/[C@@H]2C[C@@H](O)CC(=O)O2)n(-c2ccc(Cl)cc2)c(=O)c2ccccc12` [R, (4R,6S)-(E)-6-(2-(2-(4-chlorophenyl)-4-isopropyl-1-oxo-1,2-dihydroisoquinolin-3-yl)ethen-1-yl)-4-hydroxy-3,4,5,6-tetrahydro-2H-pyran-2-one], the inhibition at 0.082 µg/mL came to 21%, testing at 0.25 µg/mL gave an inhibition of 35%, the inhibition at 0.74 µg/mL was 56% and testing at 2.22 µg/mL gave an inhibition of 78%. The molecule further yielded an inhibition at 6.66 µg/mL of 91% and an inhibition at 20 µg/mL of 97%.
Take `Cc1c(/C=C/[C@@H]2C[C@@H](O)CC(=O)O2)n(-c2ccc(F)cc2)c(=O)c2ccccc12` [V, (4R,6S)-(E)-6-(2-(2-(4-fluorophenyl)-4-methyl-1-oxo-1,2-dihydroisoquinolin-3-yl)ethen-1-yl)-4-hydroxy-3,4,5,6-tetrahydro-2H-pyran-2-one]: the inhibition at 0.74 µg/mL came out at 10%, testing at 2.22 µg/mL gave an inhibition of 40%, the inhibition at 6.66 µg/mL worked out at 67% and the inhibition at 20 µg/mL stood at 85%.
Take `O=C1C[C@H](O)C[C@@H](/C=C/c2c(-c3ccc(F)cc3)c3ccccc3c(=O)n2CC2CC2)O1` [X, (4R,6S)-(E)-6-(2-(2-cyclopropylmethyl-4-(4-fluorophenyl)-1-oxo-1,2-dihydroisoquinolin-3-yl)ethen-1-yl)-4-hydroxy-3,4,5,6-tetrahydro-2H-pyran-2-one]: 0.082 µg/mL produced 16% inhibition, the inhibition at 0.25 µg/mL was determined as 35%, the inhibition at 0.74 µg/mL stood at 61% and the inhibition at 2.22 µg/mL stood at 83%. The same molecule came in with an inhibition at 6.66 µg/mL of 92% and an inhibition at 20 µg/mL of 96%.
`CC(C)c1c(/C=C/[C@@H]2C[C@@H](O)CC(=O)O2)n(C2CCCCC2)c(=O)c2ccccc12` [Z, (4R,6S)-(E)-6-(2-(2-cyclohexyl-4-isopropyl-1-oxo-1,2-dihydroisoquinolin-3-yl)ethen-1-yl)-4-hydroxy-3,4,5,6-tetrahydro-2H-pyran-2-one] registered an inhibition at 0.082 µg/mL of 50%, an inhibition at 0.25 µg/mL of 77%, an inhibition at 0.74 µg/mL of 88% and an inhibition at 2.22 µg/mL of 96%. The same molecule returned an inhibition at 6.66 µg/mL of 99%.
